Assay results reported in PubChem BioAssay AID2610 (Broad Institute, 2010).
Results filed as inconclusive are left out. Calls of active or inactive are those of the source.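 The calls were made as follows: active = EC50 no more than tenfold above the top concentration tested, with valid fit and all samples agreeing; inconclusive = flat fit at 30 to 70% inhibition, poor fit, or split samples; inactive = EC50 beyond tenfold the top concentration tested.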

Tested on: BJeLR fibroblast viability, Alamar Blue fluorescence, 48 h
Assay: cytotoxicity toward RAS-transformed BJeLR fibroblasts, dose response, cell-based, alamar blue fluorescence, 48 h, cherrypicked samples (AID 2610);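 also: BJ fibroblasts with hTERT plus SV40 large and small T and HRAS V12; EC50 for loss of viable cells so potency reflects cytotoxic compounds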

Row | SMILES | EC50
1 | O=C(NC(Nc1nc2ccc([N+](=O)[O-])cc2s1)(C(F)(F)F)C(F)(F)F)c1ccccc1 | 239 nM
2 | CCN1/C(=C/c2ccc3cc(C)ccc3[n+]2CC)Sc2ccc3sccc3c21 | < 104 nM
3 | C[C@@H]1C=CC(=O)O[C@@H]1c1ccc(C(F)(F)F)cc1 | 1970 nM
4 | CCOc1ccc(CC(=O)Nc2ccc(NC(=O)c3ccco3)cc2)cc1OCC | 2060 nM
5 | COc1ccc(C)cc1NS(=O)(=O)c1ccc(-c2cnc(C3CC3)o2)cc1 | < 104 nM
6 | Cc1onc(C(=O)N2CCN(C(c3ccccc3)c3ccccc3)CC2)c1[N+](=O)[O-] | 762 nM
7 | O=C(/C=C/c1ccc([N+](=O)[O-])o1)NNC(=O)c1ccc(F)cc1 | 2660 nM
8 | CC(C)(C)c1ccc(-n2nc(C#N)c(Cl)cc2=O)cc1 | 963 nM
9 | COc1ccc(C(=O)c2cc([N+](=O)[O-])ccc2N2CCOCC2)cc1 | < 104 nM
10 | C[C@@H]1O[C@@H](O[C@H]2C[C@@H](O)[C@]3(CO)[C@H]4[C@H](O)C[C@]5(C)[C@@H](C6COC(=O)C6)CC[C@]5(O)[C@@H]4CC[C@]3(O)C2)[C@H](O)[C@H](O)[C@H]1O (stereo partly drawn) | 802 nM
11 | COc1ccc(OC)c2sc(N(CCCN(C)C)C(=O)c3ccc(S(=O)(=O)N4CCc5ccccc5C4)cc3)nc12 | 108 nM
12 | COc1ccc(N(C(=O)CCl)C(C(=O)NCCc2ccccc2)c2cccs2)cc1 (stereo not drawn) | 428 nM
13 | CCOC(=O)/C(=C\c1ccc([N+](=O)[O-])cc1)C(=O)c1cc(C(C)=O)c(Nc2ccccc2)s1 | 958 nM
14 | COc1ccccc1C(=O)Nc1nc2ccccc2[nH]1 | > 13300 nM (inactive)
15 | c1ccc(-c2ccc(-c3nc(-c4ccccn4)no3)cc2)cc1 | > 13300 nM (inactive)
16 | COc1ccc(S(=O)(=O)N2c3cc(Cl)ccc3Oc3nc4ccccc4nc32)cc1 | 193 nM
17 | O=C(/C=C\c1ccco1)Nc1cc([N+](=O)[O-])ccc1F | 256 nM
18 | Cc1cccc(Nc2nc(N)nc(CCl)n2)c1 | 2210 nM
19 | CC[C@@]1(O)C(=O)OCc2c1cc1n(c2=O)Cc2cc3c(CN(C)C)c(O)ccc3nc2-1 | < 39.2 nM
20 | O=c1cnnc(N/N=C/c2ccccn2)[nH]1 | 1030 nM
21 | Nc1nc(N)c2c(ccc3nccc32)[nH]1 | > 13300 nM (inactive)
22 | O=C(c1cc([N+](=O)[O-])ccc1N1CCOCC1)N1CCN(c2ccccc2)CC1 | < 104 nM
23 | CCc1nc(N)nc(N)c1-c1ccc(Cl)cc1 | > 13300 nM (inactive)
24 | COc1cc([C@H]2c3[nH]c4ccccc4c3C[C@H]3C(=O)N4[C@@H](c5cc(OC)c(OC)c(OC)c5)c5[nH]c6ccccc6c5C[C@H]4C(=O)N23)cc(OC)c1OC | > 13300 nM (inactive)
25 | CCOc1ccc(OCc2cccc(C(=O)O)c2)cc1 | > 13300 nM (inactive)
26 | CCOc1cc(/C=C2\COc3ccccc3C2=O)cc(Br)c1OCC(=O)N(C)C | 3080 nM

Row | SMILES | EC50
27 | CCCCCCCCCCCCn1ccc(=N)cc1 | 522 nM
28 | CCN1/C(=C/C(C)=C/c2sc3ccccc3[n+]2CC)Sc2ccccc21 | 152 nM
29 | Cc1ccc(N(C(=O)CCl)C(C(=O)NC2CCCCC2)c2cccnc2)cc1C (stereo not drawn) | < 89.2 nM
30 | COc1cc(C2CC(c3cccs3)=NN2C(=O)CCl)ccc1OC(F)F (stereo not drawn) | 271 nM
31 | COc1ccc(C(C(=O)NC2CCCCC2)N(C(=O)CCl)c2cccc(Cl)c2)cc1 (stereo not drawn) | < 73.2 nM
32 | C/C(=N\Nc1ncc(Cl)cc1Cl)c1ccccn1 | < 22.2 nM
33 | CCCCCCCCCCn1c2c(c(=N)c3c1CCC3)CCC2 | 820 nM
34 | O=Cc1ccc(O)c2ncccc12 | 463 nM
35 | COC(=O)C[C@]1(C(=O)OC)CN(C#N)N(c2ccc(Cl)cc2)C12c1ccccc1-c1ccccc12 | 762 nM
36 | O=C1N(c2ccccc2)C[C@@H]2C[C@@H](c3cc4ccccc4o3)N3CCC[C@@]123 | 610 nM
37 | CC[C@@]1(O)C(=O)OCc2c1cc1n(c2=O)Cc2cc3c(NC(=O)CN)cccc3nc2-1 | 292 nM
38 | CN(C)CCCNc1c2ccccc2nc2ccccc12 | 506 nM
39 | Cc1cccc(NC2=NC(C)(C)N=C(N)N2)c1 | > 13300 nM (inactive)
40 | CC1(C)C[C@H]2C=C(C=O)[C@]3(C=O)C[C@]3(C)[C@H]2C1 | 580 nM
41 | NS(=O)(=O)c1ccc(NC(=O)c2cc(-c3cccs3)nc3ccccc23)cc1 | > 13300 nM (inactive)
42 | COC(=O)C1CN(C#N)N(c2ccc(Cl)cc2)C12c1ccccc1-c1ccccc12 (stereo not drawn) | 567 nM
43 | Cc1cccc(N(C)S(=O)(=O)c2ccc(-c3cnc(C4CC4)o3)cc2)c1 | < 104 nM
44 | COc1ccccc1-n1cnc2cc(NCc3cccs3)ccc21 | < 104 nM
45 | Cc1occc1C(=O)N/N=C/c1ccc2c(c1)OCO2 | > 13300 nM (inactive)
46 | O=C(N/N=C/c1cccs1)c1cc(-c2ccncc2)nc2ccccc12 | 113 nM
47 | CCC1=Nc2cc(C(=O)NCc3ccco3)ccc2Sc2ccc(C)cc21 | < 104 nM
48 | CCN(CC)c1ccc(/C=N/NC(=O)c2ccco2)c(O)c1 | 804 nM
49 | Cc1cc(C)cc(NS(=O)(=O)c2ccc(-c3cnc(C4CC4)o3)cc2)c1 | < 104 nM
50 | CCN1/C(=C\C=C\C2=[N+](CC)c3ccccc3C2(C)C)C(C)(C)c2ccccc21 | 239 nM
51 | COC(=O)C[C@](O)(CCCC(C)(C)O)C(=O)O[C@@H]1C(OC)=C[C@]23CCCN2CCc2cc4c(cc2[C@H]13)OCO4 | < 34.7 nM
52 | COc1ccc2[nH]c(=O)c(CN(Cc3cccs3)S(=O)(=O)c3cccc4nsnc34)cc2c1 | 1460 nM

Row | SMILES | EC50
53 | COc1ccc(CCNc2nnc(Sc3nnnn3-c3ccccc3)s2)cc1OC | 344 nM
54 | CCc1c(C)c(C#N)c2nc3ccccc3n2c1Cl | 553 nM
55 | CCCCCN=C(N)N/N=C/c1c[nH]c2ccc(OC)cc12 | 2980 nM
56 | CCCC(=O)OCCNc1cc(Sc2nccn2C)c2nonc2c1[N+](=O)[O-] | 2510 nM
57 | Cc1ccc(-c2nn(CC(=O)NCc3cc(-c4nn(C)c(=O)c5ccccc45)ccc3C)c(=O)c3ccccc23)cc1 | > 13300 nM (inactive)
58 | Cc1ccc(C)c(NS(=O)(=O)c2ccc(-c3cnc(C4CC4)o3)cc2)c1 | < 104 nM
59 | C[C@H]1O[C@@H](O[C@H]2[C@@H](O)C[C@H](O[C@H]3[C@@H](O)C[C@H](O[C@H]4CC[C@@]5(C)[C@H](CC[C@@H]6[C@@H]5C[C@@H](O)[C@]5(C)[C@@H](C7=CC(=O)OC7)CC[C@]65O)C4)O[C@@H]3C)O[C@@H]2C)C[C@H](O)[C@@H]1O | < 104 nM
60 | Cc1cccc(N2CCN(C(=S)Nc3ccc4nc(N5CCN(C)CC5)cc(C)c4c3)CC2)c1C | 864 nM
61 | O=C(Cc1ccc([N+](=O)[O-])cc1)N/N=C/c1ccc([N+](=O)[O-])o1 | 3540 nM
62 | O=C(NCc1cccnc1)c1ccc(NC(=O)c2ccc([N+](=O)[O-])cc2)cc1 | 1420 nM
63 | O=C1SC(Cc2ccccc2)C(=O)N1c1ccccc1 (stereo not drawn) | 2350 nM
64 | COc1cc2c(c(OC)c1OC)-c1ccc(N(C)CC(OC)OC)c(=O)cc1[C@@H](NC(C)=O)CC2 | 180 nM
65 | CN(Cc1cnc2nc(N)nc(N)c2n1)c1ccc(C(=O)N[C@@H](CCC(=O)O)C(=O)O)cc1 | > 13300 nM (inactive)
66 | CC(=O)c1ccccc1OCCOCCOCCOc1ccccc1C(C)=O | > 13300 nM (inactive)
67 | CCN(CC)Cc1c(O)ccc2c1O/C(=C\C=C\c1ccccc1)C2=O | > 13300 nM (inactive)
68 | c1cnc2c(c1)ccc1cccnc12 | 5560 nM
69 | COc1ccc(C2C(O)C(c3c[nH]c4ccccc34)=NN2C(=O)CCl)cc1 (stereo not drawn) | 307 nM
70 | COc1ccc(C(=O)N/N=C(\C)c2ccccn2)cc1OC | 795 nM
71 | CCN(CC)c1ccc(/C=N/NC(=O)c2ccc3nc[nH]c3c2)c(O)c1 | 1530 nM
72 | Cc1c(C(=O)OCC(=O)N2CC(=O)Nc3ccccc32)oc2ccc(Br)cc12 | > 13300 nM (inactive)
73 | COc1ccccc1/C=C1\SC(=O)N(CCC(=O)NCCCn2ccnc2)C1=O | > 13300 nM (inactive)
74 | O=Cc1cc2ccccc2nc1SCc1ccc(Cl)cc1 | < 104 nM
75 | O=S(=O)(c1ccc2c(c1)C(=NO)c1cc(S(=O)(=O)N3CCCCC3)ccc1-2)N1CCCCC1 | < 277 nM
76 | COc1cccc(N2CCN(C(=O)c3ccc(CS(=O)c4ccc(C)cc4)o3)CC2)c1 (stereo not drawn) | 165 nM
77 | O=C(Nc1ccc([N+](=O)[O-])cc1)Nc1ccon1 | 380 nM
78 | O=C(Cc1ccc(Cl)cc1)c1c[nH]c(C(=O)NCc2cccnc2)c1 | > 13300 nM (inactive)

Row | SMILES | EC50
79 | COc1ccc2nc(NC(=O)c3ccoc3C)sc2c1 | > 13300 nM (inactive)
80 | Cc1cc(C)c2nc(C)cc(N/N=C/c3ccc(O)cc3)c2c1 | 575 nM
81 | Nc1ncnc2c1ccn2[C@@H]1O[C@H](CO)[C@@H](O)[C@H]1O | < 104 nM
82 | CCOC(=O)c1ccc(NC(=O)Nc2ccon2)cc1 | < 104 nM
83 | CCc1ccc(/C=C2/SC(=S)N(CCC(=O)Nc3cccnc3)C2=O)cc1 | 2750 nM
84 | COc1cccc(C(=O)N/N=C(/c2ccccc2)c2ccccn2)c1 | 821 nM
85 | CC(Oc1ccc(Cl)cc1Cl)c1nc(-c2ccc(NC(=O)c3cccnc3)cc2)no1 (stereo not drawn) | 1580 nM
86 | CCCOc1ccc(C(=O)C(CCC(CNCC)C(=O)c2ccc(OCCC)cc2)CNCC)cc1 (stereo not drawn) | 638 nM
87 | Cc1cc(-n2c(SCC(=O)NCCC3=CCCCC3)nc3n[nH]c(C)c3c2=N)ccc1Cl | > 13300 nM (inactive)
88 | Cc1ccccc1Nc1nc(N)nc(CCl)n1 | 2290 nM
89 | COc1ccc(C2=CC(=O)C=CC2=O)cc1 | > 13300 nM (inactive)
90 | COc1ccc(C)cc1Nc1c2c(nc3ccccc13)CCC2 | 292 nM
91 | CCCCCCCN(C(=O)CCl)c1cccc(C)c1 | 429 nM
92 | COc1cccc(/C=C2\SC(=S)N(CCCC(=O)N(CCO)c3ccccc3)C2=O)c1 | 2530 nM
93 | Cn1ncc2c(O/N=C(\N)c3ccc(C(C)(C)C)cc3)ncnc21 | 2340 nM
94 | Cc1ccc(/C=N/NC(=O)c2cc(-c3ccncc3)nc3ccccc23)o1 | 685 nM
95 | N#CCc1ccc(NC(=O)/C=C/c2ccc([N+](=O)[O-])o2)cc1 | 1100 nM
96 | CCN(CC)CCN1C(=O)/C(=C\c2ccc(Cl)c([N+](=O)[O-])c2)SC1=Nc1ccc(OC)cc1 | 563 nM
97 | Oc1ccc(/C=N/Nc2nccnc2Cl)c(O)c1 | 6750 nM
98 | Cc1ccc(N=Cc2c(C)[nH]n(-c3nc4ccccc4[nH]3)c2=O)cc1 | > 13300 nM (inactive)
99 | COc1cccc2c1C(=O)c1c(O)c3c(c(O)c1C2=O)C[C@@](O)(C(=O)CO)C[C@@H]3O[C@H]1C[C@H](N)[C@@H](O)[C@H](C)O1 | < 104 nM
100 | Cc1cccnc1Nc1nc(-c2ccccn2)cs1 | < 142 nM
101 | CCN1CCc2c(sc(NC(=O)c3cc4ccccc4cc3OC)c2C(N)=O)C1 | 588 nM
102 | CCCCCOc1ccc(Br)cc1/C(C)=N/NC1=NCCN1 | 697 nM
103 | C(=N\Nc1nncc2ccccc12)/c1ccccn1 | 3340 nM
